From US20250051278A1, “[…]” (Reunion Neuroscience, Inc., priority 2021, published 2025)

Key:
[1] = Subjective effects in human volunteers (standardized questionnaires); type: in vivo
Experimental: The compound from example 6 (N,N diisopropyltryptamine-4-glutarate) is administered to human volunteers by subcutaneous injection of a sterile solution (1 mg/ml) at a dosage of 0.1-0.6 mg/kg. Blood samples are taken at 5, 15, 30, 45, 60, 120, 240 and 480 min and 24 h. Samples are analyzed by LCMS for drug and prodrug. Subjective effects are measured using standardized questionnaires.
The compound from example 2 (4-hemisuccinate of 4-OH-DiPT) is administered to human volunteers by oral ingestion of a tablet containing 50 mg of the prodrug. Blood samples are taken at 5, 15, 30, 45, 60, 120, 240 and 480 min and 24 h. Samples are analyzed by LCMS for drug and prodrug. Subjective effects are measured using standardized questionnaires.

[2] = Head Twitch Response (HTR) or Wet Dog Shakes (WDS) by visual observation; type: in vivo; settings: rats; highest intensity of head twitch at the Tmax of the PK profile
Experimental: In some cases, Head Twitch Response (HTR) or Wet Dog Shakes (WDS) were recorded by visual observation and counting of the relevant muscle twitches.

Solubility in water = type: physicochemical; settings: thermodynamic from solid; HCl salt solid dissolved in water
Experimental: The structure was confirmed by NMR. Purity was determined by HPLC (>97%). The solid was resuspended in 1M HCl-dioxane to form the HCl salt which was filtered, washed with ether and dried. Yield (>95%, purity >95%; DSC endotherm 174C). The solid could be dissolved in water up to 50 mg/ml and lyophilized to form a white “cake”.

[3] = Control hydrolysis in phosphate buffered saline (PBS, pH 7.4); type: physicochemical; settings: PBS (pH7)
Experimental: (§1) Pooled mixed gender human plasma (2 ml), mouse plasma, rat plasma and dog plasma were equilibrated at 37° C. The compound of example 9 was added so as to achieve a concentration of 1.0 ug/mL. Aliquots (50 uL) of the mixture were withdrawn at timed intervals (0, 0.004, 0.5, 1, 2 and 4 hours) and quenched with 200 μL of methanol/acetonitrile (1:1). The samples were vortexed and stored at −80° C. until analysis. Assays were done in triplicate. Control samples were done in phosphate buffered saline (PBS, pH 7.4) and simulated gastric fluid (SGF, pH 2). Analysis of samples as performed by HPLC-MS to determine the amounts of prodrug and drug in each sample tested. Table 1 provides the mean concentrations of prodrug remaining at different time points of the experiment.

[4] = Prodrug hydrolysis in mouse plasma at 37° C; type: in vitro ADME; settings: 1.0 ug/mL
Experimental: as §1

[5] = Use in treatment of a human patient suffering depression; type: in vivo; settings: i.m. or s.c. injection ca. 25 mg or oral ca. 50-200 mg
Experimental: The compound of example 6 (N,N diisopropyltryptamine-4-glutarate) is administered by i.m. or s.c. injection (ca. 25 mg; 0.4-0.5 mg/kg) to a human patient suffering depression, or by oral administration (ca. 50-200 mg; 0.8-3.2 mg/kg) with tablets. In another example of use, the compound of example 6 (4-hemiglutarate of 4-OH-DiPT) is similarly administered. Prior to the dosing session, the patient is qualified for the experience by measurement of depression scores, screened for exclusions (e.g. history of psychoses, unfavorable heart condition, pregnancy) and finally, the patient is encouraged to formulate an intent for the dosing session. Dosing is performed in a quiet clinic setting with the patient resting comfortably in an inclined, but unrestrained, position to avoid falls. The patients' eyes are covered, and music is applied. The drug is administered. After 4 h, the patient reports no longer feeling the effects of the drug and is asked to sit up while under supervision. Feeling normal, the patient is allowed to stand (supervised) and feeling in control, is allowed to move around. One hour later, the patient is discharged. Later by 24 h, the patient returns to the clinic to meet with a psychotherapist to recount the session. The patient records a depression score via questionnaire and is again discharged. […]

[6] = Prodrug hydrolysis in rat plasma at 37° C; type: in vitro ADME; settings: 1.0 ug/mL
Experimental: as §1

[7] = Prodrug hydrolysis in dog plasma at 37° C; type: in vitro ADME; settings: 1.0 ug/mL
Experimental: as §1

[8] = Control hydrolysis in simulated gastric fluid (SGF, pH 2); type: physicochemical; settings: SGF (pH2)
Experimental: as §1

[9] = Prodrug hydrolysis in pooled mixed gender human plasma at 37° C; type: in vitro ADME; settings: 1.0 ug/mL
Experimental: as §1

[10] = Pharmacokinetics in rats (intravenous and subcutaneous injection); type: in vivo; settings: i.v. and s.c., 1.4-2 mg/kg, LCMS, rapidly converted to the active form
Experimental: The compound from example 9 was administered to rats by injection (intravenous and subcutaneous) with a sterile solution (2 mg/ml) at a rate of 1.4-2 mg/kg. Blood samples were taken at 15, 30, 45, 60, 120, 240 min and 360 min and analyzed by LCMS for drug and prodrug. PK profile for the prodrug and active species were obtained and relative bioavailability was determined for each of the routes of administration.
Pharmacokinetics of 1.34 mg/ml 4-HO-DiPT HCl administered by intravenous or subcutaneous injection were performed in parallel under identical conditions as above. […] Immediately obvious is the increased variability with the active species when administered s.c. and intravenous administrations.

## CC(C)N(CCc1c[nH]c2cccc(OC(=O)CCC(=O)O)c12)C(C)C [Example 2, N,N diisopropyltryptamine-4-succinate]
[1]; oral tablet 50 mg
  Subjective effects: intensity of psychoactivity: correlates with blood levels

## CC(C)N(CCc1c[nH]c2cccc(O)c12)C(C)C [Example 4-HO-DIPT, 4-hydroxy-N,N-diisopropyltryptamine]
[2]
  Intensity of the HTR versus plasma concentration of 4-HO-DIPT: proportional to the plasma concentration

## CC(C)N(CCc1c[nH]c2cccc(OC(=O)CCCC(=O)O)c12)C(C)C [Example 6, N,N diisopropyltryptamine-4-glutarate]
Solubility in water
  solubility: ≤ 50 mg/mL
[3]; 0 h
  Percentage of remaining prodrug: 100%
[3]; 4 h
  Percentage of remaining prodrug: 93%
[4]; 0 h
  Percentage of remaining prodrug: 100%
[4]; 0.004 h
  Percentage of remaining prodrug: 0%
[4]; 0.5 h
  Percentage of remaining prodrug: 0%
[4]; 1 h
  Percentage of remaining prodrug: 0%
[4]; 2 h
  Percentage of remaining prodrug: 0%
[4]; 4 h
  Percentage of remaining prodrug: 0%
[5]
  Time after which the patient reports no longer feeling the effects of the drug: 4 h
[6]; 0 h
  Percentage of remaining prodrug: 100%
[6]; 0.004 h
  Percentage of remaining prodrug: 0%
[6]; 0.5 h
  Percentage of remaining prodrug: 0%
[6]; 1 h
  Percentage of remaining prodrug: 0%
[6]; 2 h
  Percentage of remaining prodrug: 0%
[6]; 4 h
  Percentage of remaining prodrug: 0%
[7]; 0 h
  Percentage of remaining prodrug: 100%
[7]; 0.004 h
  Percentage of remaining prodrug: 100%
[7]; 0.5 h
  Percentage of remaining prodrug: 87%
[7]; 1 h
  Percentage of remaining prodrug: 79%
[7]; 2 h
  Percentage of remaining prodrug: 64%
[7]; 4 h
  Percentage of remaining prodrug: 39%
[8]; 0 h
  Percentage of remaining prodrug: 100%
[8]; 0.004 h
  Percentage of remaining prodrug: 100%
[8]; 0.5 h
  Percentage of remaining prodrug: 100%
[8]; 1 h
  Percentage of remaining prodrug: 100%
[8]; 4 h
  Percentage of remaining prodrug: 101%
[9]; 0 h
  Percentage of remaining prodrug: 100%
[9]; 0.004 h
  Percentage of remaining prodrug: 100%
[9]; 0.5 h
  Percentage of remaining prodrug: 3.0%
[9]; 1 h
  Percentage of remaining prodrug: 0.23%
[9]; 2 h
  Percentage of remaining prodrug: 0%
[9]; 4 h
  Percentage of remaining prodrug: 0%
[1]; subcutaneous injection, 0.1-0.6 mg/kg
  Subjective effects: intensity of psychoactivity: correlates with blood levels

## CC(C)N(CCc1c[nH]c2cccc(OC(=O)CCCC(=O)O)c12)C(C)C.Cl [Example 9, HCl salt of N,N diisopropyltryptamine-4-glutarate]
[10]
  Prodrug in blood samples after injection: not observed
